The nature of series [1]: pKa value was determined. The class given is physicochemical.
The target in series [2] is Dihydrofolate reductase (Lactobacillus casei) (UniProt P00381). In words: Inhibitory activity tested against dihydrofolate reductase from Lactobacillus casei. The note with it: Lacticaseibacillus casei.
The target of series [3] is T1, Dihydrofolate reductase (Mus musculus) (UniProt P00375).
T1 sequence (whole entry): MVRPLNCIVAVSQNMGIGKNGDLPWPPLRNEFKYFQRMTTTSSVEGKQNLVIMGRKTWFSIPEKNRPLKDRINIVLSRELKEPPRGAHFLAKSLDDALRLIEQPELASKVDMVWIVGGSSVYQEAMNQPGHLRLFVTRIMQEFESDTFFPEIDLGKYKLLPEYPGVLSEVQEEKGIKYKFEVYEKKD
In words: Inhibitory tested against Dihydrofolate reductase enzyme from L1210 mouse leukemia cells using [3H]methotrexate as a radioligand. The series is classed as cell-based.

Series [4] is filed under the species Mus musculus. The series is described as follows: Compound was tested for life span loss of mean body weight. The series is classed as functional.
Series [5] concerns Mus musculus. In words: Compound was tested for life span of weight loss in mice at 4 mg/kg/day. The series is classed as functional.
Series [6] relates to Mus musculus. In words: In vivo life span increase in mice after 120 mg/kg (mg/kg)/day (q3d X 3) starting 24 hr of ip administration on; No activity. Also on record: dose 120 mg/kg. The series is classed as functional, organism-based. Conditions: at 120 mg/kg.
For series [7], the system named is Mus musculus. The series is described as follows: In vivo life span increase in mice after 240 mg/kg (mg/kg)/day (q3d X 3) starting 24 hr of ip administration on. The series is classed as functional. The note with it: route intraperitoneal.
The test system of series [8] is Mus musculus. In words: In vivo life span increase in mice after 30 mg/kg (mg/kg)/day (q3d X 3) starting 24 hr of ip administration on;No activity. The series is classed as functional, organism-based. Also on record: dose 30 mg/kg. The note with it: at 30 mg/kg.
The test system of series [9] is Mus musculus. The series is described as follows: Compound was tested for life span of weight loss in mice at 1 mg/kg/day. The class given is functional.
The species named for series [10] is Mus musculus. In words: Compound was tested for life span of weight gain. The class given is functional.
The species named for series [11] is Mus musculus. The series is described as follows: Growth inhibitory activity against L1210 mouse leukemia cells. The series is classed as functional.
Series [12] has as its system Mus musculus. The series is described as follows: In vivo life span increase in mice after 60 mg/kg (mg/kg)/day (q3d X 3) starting 24 hr of ip administration on; No activity. The series is classed as functional, organism-based. Also on record: dose 60 mg/kg. Conditions: at 60 mg/kg.

As a reminder, the pKa is the negative logarithm of the acid dissociation constant. A higher pKa goes with a group that holds its proton tightly. The term ILS denotes the gain in survival time of treated over control animals, in per cent.

Molecules are shown by their SMILES. Activity calls are given as the source filed them. The rule behind the calls is not given here.

Dihydrofolate reductase (Lactobacillus casei), sequence (P00381 whole entry): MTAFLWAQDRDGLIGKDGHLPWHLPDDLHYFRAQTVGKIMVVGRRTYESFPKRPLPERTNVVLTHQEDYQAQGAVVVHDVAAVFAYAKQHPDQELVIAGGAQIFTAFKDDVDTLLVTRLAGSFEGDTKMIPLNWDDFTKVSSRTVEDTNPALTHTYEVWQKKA

`N[C@@H](CCC(=O)O)C(=O)O` [GLUTAMIC ACID] showed a pKa in [1] of 3.2.
Take `Nc1nc(N)c2nc(CNc3ccc(C(=O)N[C@@H](CCC(=O)O)C(=O)O)cc3)cnc2n1`: the ID50 worked out at 0.027 µM in series [2] and 0.0022 µM in series [3].
As for `Nc1nc(N)c2nc(CNc3ccc(CNC(CO)CCC(=O)O)cc3)cnc2n1` (stereo not given), the ID50 in [2] was 0.47 µM; in series [3], 0.024 µM. Further, the Loss in the series listed under Mus musculus [4] was determined as 5%. The same molecule showed an increase in lifespan (ILS) at 4 mg/kg/day in the series on Mus musculus [5] of 45%. For the same molecule, the Increase entry in the series with Mus musculus [6], with Mus musculus [8] and with Mus musculus [12] was “inactive” in each case. For the same molecule, the Increase with Mus musculus [7] was determined as 22%. Besides, the ILS at 1 mg/kg/day in the series on Mus musculus [9] was 27%. Further, the Weight gain in the series filed under Mus musculus [10] is listed as 13%. Also, in the series listed under Mus musculus [11], the Activity worked out at 1 µM.
Take `CC(=O)NCC(=O)O` [ACETURIC ACID]: the pKa in series [1] amounted to 3.6.

Source of the values: ChEMBL document CHEMBL1121987 (J Med Chem, 1982).
